The text below walks through data of patent US20240174622A1, “COMPOUND AND RADIOACTIVE LABELING COMPOUND” (NIHON MEDI-PHYSICS CO., LTD., priority 2021, published 2024).

In experiment [1] the target is human serum albumin (HSA) (Homo sapiens, UniProt P02768). Description: Evaluation of binding to albumin (HSA solution, PBS control). The method, boiled down: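 Albumin binding read as the split of radioactivity between eluate and retained column fraction after gamma counting. Samples in human albumin or PBS control were centrifuged 2 min at 1500×g, 4° C., through Sephadex G-100 or G-50 spin columns.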

The target in experiment [2] is T1, plasma albumin (mouse plasma) (Mus musculus, UniProt P07724).
T1 construct: from tissue; host or cells: mouse plasma
As to the kind of experiment: Evaluation of binding to albumin (mouse plasma). The conditions noted are these: for radioactivity in the eluate (in words): left to stand in mouse plasma. The procedure: (§1) A PBS solution (37 kBq, 50 μL) of [^111In]In-PSMA-DA1 or [^111In]In-PSMA-DB was added to 200 μL of PBS, mouse plasma, human plasma, or a human serum albumin (HSA) solution (45 mg/mL) in PBS, respectively, and the mixtures were allowed to stand at 37° C. for 10 minutes. Thereafter, the reaction liquids were added to a spin column ([…]; manufactured by Cytiva), and centrifuged at 1500×g at 4° C. for 2 minutes. After separation, the radioactivity for each of the column and the eluate was measured with a gamma counter.
(§2) When a compound to be evaluated binds to albumin to form a composite, the compound passes through the column because of the increased molecular size.
(§3) As in Example 1-1 described above, PBS, mouse plasma, human plasma, and human albumin were used to evaluate binding to albumin. Evaluation was carried out by the same experimental procedure and statistical method as in Example 1-1, except that a PBS solution (37 kBq, 50 μL) of [^111In]In-PtDA was used.
(§4) Thereafter, the reaction liquid was added to a spin column (Sephadex G-50; manufactured by Cytiva), and centrifuged at 1500×g at 4° C. for 2 minutes. After separation, the radioactivity of the column and the eluate was measured with a gamma counter.

In experiment [3] the test system is LNCaP cells (PSMA-positive, human prostate cancer). As to the kind of experiment: Binding assay using cultured cells (LNCaP). The experiment is classed as cell-based. The conditions noted are these: for binding to LNCaP cells on adding an excess amount of the PSMA inhibitor (2-PMPA): 2-PMPA final concentration 100 μM. The procedure: LNCaP cells (PSMA-positive, human prostate cancer) and PC-3 cells (PSMA-negative, human prostate cancer) were used. These cells were purchased from American Type Culture Collection and DS Biomedical, respectively. Each of the cells were cultured in RPMI 1640, which is manufactured by NACALAI TESQUE, INC. and contains antibiotics (penicillin and streptomycin) and 10% inactivated fetal bovine serum, at 37° C. under 5% CO2.
The LNCaP cells and PC-3 cells were each seeded on a 12 well plate at 4.0×10^5 cells/well, and left standing at 37° C. under 5% CO2 for 48 hours.
The culture medium was removed, and an assay medium (0.5% FBS-containing RPMI 1640 medium) solution (1 mL) containing [^111In]In-PSMA-DA1 or [^111In]In-PSMA-DB (37 kBq) was added. Thereafter, the plate was allowed to stand at 37° C. under 5% CO2 for 1 hour.
In the inhibition assays, after removing the culture medium, an assay medium (1 mL) solution containing: [^111In]In-PSMA-DA1 or [^111In]In-PSMA-DB (37 kBq); and 2-(phosphonomethyl) pentanedioic acid (2-PMPA) (PSMA inhibitor; final concentration: 100 μM) was added. Thereafter, the plate was allowed to stand at 37° C. under 5% CO2 for 1 hour.
After removing the assay medium, each well was washed with an assay medium (1 mL) containing neither the radiolabeled compound nor 2-PMPA, and the cells were lysed with 1 N aqueous sodium hydroxide solution (200 μL×2).
The radioactivity for each of the assay medium and the cell lysate was measured with a gamma counter. Separately, the total protein concentration in the cell lysate was calculated using BCA Protein Assay Kit, which is manufactured by Thermo Fisher Scientific K.K. The value (% ID/mg protein) obtained by dividing the percentage (% ID) of the sample's radioactivity amount to the added radioactivity amount by the total protein amount was calculated for each sample.
In the same manner as in Example 1-1 described above, LNCaP cells and PC-3 cells were cultured and cell-binding assay were performed. Evaluation was carried out by the same experimental procedure and statistical method as in Example 1-1, except that 0.5% FBS-containing RPMI 1640 medium (1 mL) containing [^111In]In-PtDA (37 kBq) was used.
LNCaP cells and PC-3 cells cultured in the same method as in Example 1-1 were each seeded on a 12 well plate at 4.0×10^5 cells/well, and left standing at 37° C. under 5% CO2 for 48 hours. The culture medium was removed, and an assay medium (0.5% FBS-containing RPMI 1640 medium) solution (1 mL) containing the radiolabeled compound (37 kBq each) in Examples 3-1 to 3-3 or Comparative Examples 2-1 to 2-2 was added. Thereafter, the plate was allowed to stand at 37° C. under 5% CO2 for 1 hour.
In the inhibition experiments, after removing the culture medium, an assay medium (1 mL) containing: the radiolabeled compound described above; and 2-(phosphonomethyl) pentanedioic acid (2-PMPA) (PSMA inhibitor; final concentration: 100 μM) was added. Thereafter, the plate was allowed to stand at 37° C. under 5% CO2 for 1 hour.
After removing the assay medium, each well was washed with assay medium (1 mL), and the cells were lysed with 1 N aqueous sodium hydroxide solution (200 μL×2).
Radioactivity of each of the cell lysates was measured with a gamma counter. Separately, the total protein concentration in the cell lysate was calculated using BCA Protein Assay Kit, which is manufactured by Thermo Fisher Scientific K.K. The value (% ID/mg protein) obtained by dividing the percentage (% ID) of the sample's radioactivity amount to the added radioactivity amount by the total protein amount was calculated for each sample.
LNCaP cells and PC-3 cells cultured in the same method as in Example 1-1 were each seeded on a 12 well plate at 4.0×10^5 cells/well, and left standing at 37° C. under 5% CO2 for 48 hours.
Thereafter, the plate was allowed to stand at 37° C. under 5% CO2 for 1 hour. […]

The test system of experiment [4] is plasma albumin (human plasma). As to the kind of experiment: Evaluation of binding to albumin (human plasma). The conditions noted are these: for radioactivity in the eluate (in words): left to stand in human plasma. The procedure: as §1, §2, §3, §4
Where [5] appears, read: left to stand in HSA solution (45 mg/mL).

Each structure is given as a SMILES string.

T1 sequence (P07724 25-608): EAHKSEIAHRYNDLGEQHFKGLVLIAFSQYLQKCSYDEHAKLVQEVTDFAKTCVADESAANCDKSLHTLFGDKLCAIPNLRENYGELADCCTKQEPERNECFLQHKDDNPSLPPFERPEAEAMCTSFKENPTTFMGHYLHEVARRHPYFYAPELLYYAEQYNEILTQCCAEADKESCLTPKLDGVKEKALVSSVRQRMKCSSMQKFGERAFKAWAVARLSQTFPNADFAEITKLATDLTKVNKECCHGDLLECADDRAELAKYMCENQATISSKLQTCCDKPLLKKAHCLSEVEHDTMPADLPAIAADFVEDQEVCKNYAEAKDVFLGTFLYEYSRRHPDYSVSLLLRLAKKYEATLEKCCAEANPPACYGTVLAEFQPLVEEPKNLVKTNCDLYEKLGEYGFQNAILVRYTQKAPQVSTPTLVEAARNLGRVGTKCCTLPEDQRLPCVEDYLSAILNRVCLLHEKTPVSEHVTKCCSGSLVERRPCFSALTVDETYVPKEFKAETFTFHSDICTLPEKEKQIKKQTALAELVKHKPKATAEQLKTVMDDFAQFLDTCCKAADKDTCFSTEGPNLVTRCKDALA
human serum albumin (HSA), sequence (P02768 25-609): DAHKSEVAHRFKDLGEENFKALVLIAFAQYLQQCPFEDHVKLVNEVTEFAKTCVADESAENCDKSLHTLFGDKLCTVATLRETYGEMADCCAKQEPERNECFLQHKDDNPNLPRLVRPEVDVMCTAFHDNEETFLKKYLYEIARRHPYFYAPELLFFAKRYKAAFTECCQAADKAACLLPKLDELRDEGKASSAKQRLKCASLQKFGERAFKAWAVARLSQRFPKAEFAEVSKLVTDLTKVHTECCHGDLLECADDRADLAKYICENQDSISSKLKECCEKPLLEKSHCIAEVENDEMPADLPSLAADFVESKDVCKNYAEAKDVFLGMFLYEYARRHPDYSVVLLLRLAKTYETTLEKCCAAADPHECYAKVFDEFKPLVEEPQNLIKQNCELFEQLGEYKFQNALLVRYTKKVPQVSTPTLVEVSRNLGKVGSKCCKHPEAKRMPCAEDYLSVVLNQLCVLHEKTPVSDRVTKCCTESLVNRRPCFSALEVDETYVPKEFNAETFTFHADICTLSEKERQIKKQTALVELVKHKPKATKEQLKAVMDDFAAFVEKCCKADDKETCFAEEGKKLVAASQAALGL

Turning to `O=C([O-])CN(Cc1cccc(C(=O)[O-])n1)C[C@H](Cc1ccc(NC(=O)[C@H](CCCCNC(=O)CCC(=O)NCCCC[C@H](NC(=O)N[C@@H](CCC(=O)O)C(=O)O)C(=O)O)NC(=O)CCCc2ccc(I)cc2)cc1)N(CC(=O)[O-])Cc1cccc(C(=O)[O-])n1.[111In+3]` [[^111In]In-Octapa-2], in experiment [1] (setting [5]), the “radioactivity in the eluate (in words)” value was “significantly higher”.
On to `O=C([O-])CN1CCN(C(CCC(=O)NCCCC[C@H](NC(=O)N[C@@H](CCC(=O)O)C(=O)O)C(=O)O)C(=O)[O-])CCN(CC(=O)[O-])CCN(C(CCC(=O)N[C@@H](CCCCNC(=O)CCCc2ccc(I)cc2)C(=O)O)C(=O)[O-])CC1.[111In+3]` (some centres unmarked) [[^111In]In-PSMA-DA1], for which the “radioactivity in the eluate (in words)” value is listed as “significantly higher” in experiment [2], “significantly higher” in experiment [1] (setting [5]), “no significant radioactivity” in experiment [1] (left to stand in PBS) and “significantly higher” in experiment [4]. The “binding to LNCaP cells on adding an excess amount of the PSMA inhibitor (2-PMPA)” value (“binding … of the PSMA inhibitor (2-PMPA)” for short) in experiment [3] was “significantly reduced”. The “binding ability to LNCaP cells compared to PC-3 cells” value in experiment [3] (37° C., 1 hour) was “high binding ability”.
`O=C([O-])CN1CCN(C(CCC(=O)NCCCC[C@H](NC(=O)N[C@@H](CCC(=O)O)C(=O)O)C(=O)O)C(=O)[O-])CCN(CC(=O)[O-])CCN(C(CCC(=O)Nc2ccccc2)C(=O)[O-])CC1.[111In+3]` (some centres unmarked) [[^111In]In-PSMA-DB, reference compound]: in experiment [1] (left to stand in PBS), the “radioactivity in the eluate (in words)” value is “no significant radioactivity”. In experiment [3], the “binding … of the PSMA inhibitor (2-PMPA)” value is recorded as “significantly reduced”. In addition, the “binding ability to LNCaP cells compared to PC-3 cells” value in experiment [3] (37° C., 1 hour) is recorded as “high binding ability”.
In the case of `O=C(O)CC[C@H](NC(=O)N[C@@H](CCCCNC(=O)[C@H](Cc1ccc2ccccc2c1)NC(=O)[C@H]1CC[C@H](CNC(=O)CCC(C(=O)O)N2CCN(CC(=O)O)CCN(C(CCC(=O)N[C@@H](CCCCNC(=O)CCCc3ccc(I)cc3)C(=O)O)C(=O)O)CCN(CC(=O)O)CC2)CC1)C(=O)O)C(=O)O` (some centres unmarked) [[^111In]In-PSMA-NAT-DA1, metal not drawn], the “radioactivity in the eluate (in words)” value in experiment [2] and in experiment [4] was “significantly high” throughout. The “binding … of the PSMA inhibitor (2-PMPA)” value in experiment [3] is “significantly reduced”. The “binding ability to LNCaP cells compared to PC-3 cells” value in experiment [3] (37° C., 1 hour) is recorded as “high binding ability”.
Consider `O=C([O-])CN1CCN(C(CCC(=O)NCCC(=O)N2Cc3ccccc3-c3c(nnn3CCOCCOCCOCCOCCC(=O)NCCCC[C@H](NC(=O)N[C@@H](CCC(=O)O)C(=O)O)C(=O)O)-c3ccccc32)C(=O)[O-])CCN(CC(=O)[O-])CCN(C(CCC(=O)N[C@@H](CCCCNC(=O)CCCc2ccc(I)cc2)C(=O)O)C(=O)[O-])CC1.[111In+3]` (some centres unmarked) [[^111In]In-PtDA], for which the “radioactivity in the eluate” value in experiment [2] (mouse plasma) is given as 67.2%; in experiment [1] (PBS), 6.9%; in experiment [1] (human albumin solution), 92.4%; in experiment [4] (human plasma), 79.0%. Besides, the “binding to LNCaP cells with excess PSMA inhibitor (2-PMPA)” value in experiment [3] (2-PMPA 100 μM) is recorded as 0.36 % ID/mg protein. The “binding to LNCaP cells” value in experiment [3] (37° C., 1 hour) is on record as 15 % ID/mg protein.
